Laboratory results from US3957812A, “Derivatives of 2-phenoxyacetamido-5-nitro-thiazole” (priority 1973, dated 1976).
≈ marks a conversion by molar mass, not a printed value. Where two headings read alike, the source gives them in different places.

Legend:
Enterococcus 9790 = assay: Determination of bacteriostatic doses, E. 9790; assay type: cell-based; details: gelose medium, 37°C, 24 hours; for MIC: Enterococcus, 9790, read-out: bacteriostatic dose, E. 9790
Experimental: (§1) (5) Method for determining bacteriostatic doses
(§2) A common gelose medium of the following composition is used.
(§3) The pH is adjusted at 7.2 and the medium is sterilized during 30 minutes at 120°C.
(§4) The same method as for the determination of fungistatic doses is used, except that the various dilutions of each compound are added to the gelose medium, the solvent concentration never exceeding 3%. Tubes containing […] of the compounds per ml are prepared.
(§5) Cultures of each strain in the liquid medium are prepared and, after 24 hours of incubation at 37°C, dilutions of these cultures in ordinary broth are prepared as follows:
(§6) By means of these dilutions, scratches of a length of 4 to 5 cm are made on the previously dried surface of the gelose medium to which various amounts of the compound to be tested have been added.

Entomoeba dysenteriae = assay: Test for amoebicidal activity; assay type: cell-based
Text: (§7) Biological tests have been performed with a great number of compounds of formula (I) using the following techniques: (1) Test for amoebicidal activity described by R. CAVIER, Ann. pharm. franc., 1960, 18, pages 583-589 and by R. CAVIER, and J. CENAC, Bull. Soc. Path. exot. 1972, 65, pages 399-404. (2) Test for trichomonacidal activity described by R. CAVIER and P. BUOT, Ann. pharm. franc., 1964, 22, pages 211-216 and by R. CAVIER and J. CENAC, Semaine des Hopitaux, 1972, 48, pages 391-394). (3) Tests for anthelminthics described for nematodes (such as Syphacia obvelata) by R. CAVIER, Bull. Soc. Path. exot., 1962, 55, pages 412-417 and, for cestodes (such as Hymenolepis nana), by R. CAVIER, Ann. pharm. franc., 1956, 14, pages 545-552 and by R. CAVIER and M. J. NOTTEGHEM, Ann. pharm. franc. 1968, 28, pages 603-606.

[1] = test system: Trichophyton mentagrophytes; assay: Determination of fungistatic doses, T.m.; assay type: cell-based; details: liquid Sabouraud medium, 25°C, 10 days; for MIC: Trichophyton mentagrophytes, 240 h, read-out: fungistatic dose, T.m
Experimental: (§8) (4) Method for determining fungistatic doses:
(§9) A liquide Sabouraud medium having the following composition is used:
(§10) If necessary, the pH is adjusted at 6.4 and the medium is sterilized.
(§11) The compounds are dissolved in dimethylformamide to which polyethylene glycol is sometimes added. From the mother-liquor, successive diluted solutions are prepared in the liquid Sabouraud medium, so as to obtain concentrations of 1, 3, 10, 30 100 and […] per ml. For the first dilution, one should not add more than 10% of the mother-liquor to the Sabouraud medium. Subsequently 9 ml per tube of the various solutions in the liquid Sabouraud medium are distributed.
(§12) Reference tubes corresponding to the highest solvent concentrations are also prepared.
(§13) Cultures of the various dermatophyte strains on Sabouraud gelose medium are prepared. From 1 to 2 months old cultures, homogeneous suspensions of said cultures in the liquid Sabouraud medium are prepared, the obtained suspensions being stirred in the presence of glass pearls having a light transmission of about 40%.
(§14) One drop of said suspension is introduced in the tubes containing the various concentrations of the compound to be tested.
(§15) at 25°C ± 2°C in the dark
(§16) 10 days of incubation for dermatophytes.

[2] = test system: Pseudomonas aeruginosa 8194; assay: Determination of bacteriostatic doses, Pseudo 8194; assay type: cell-based; details: gelose medium, 37°C, 24 hours
Experimental: as §1, §2, §3, §4, §5
Pseudomonas aeruginosa 8194
as §6

[3] = test system: Staphylococcus aureus 209 P; assay: Determination of bacteriostatic doses, S. 209 P; assay type: cell-based; details: gelose medium, 37°C, 24 hours; for MIC: Staphylococcus aureus, 209P, read-out: bacteriostatic dose, S. 209 P
Experimental: as §1, §2, §3, §4, §5
Staphylococcus aureus 209 P
as §6

[4] = test system: Proteus morganii IP 53185; assay: Determination of bacteriostatic doses, P. morg.; assay type: cell-based; details: gelose medium, 37°C, 24 hours
Experimental: as §1, §2, §3, §4, §5
Proteus morganii IP 53185
as §6

[5] = test system: Shigella dysenteriae 3410; assay: Determination of bacteriostatic doses, S. 3410; assay type: cell-based; details: for MIC: Shigella dysenteriae, 3410, 24 h, read-out: bacteriostatic dose, S. 3410
Experimental: as §1, §2, §3, §4, §5
Shigella dysenteriae 3410
as §6

Microsporum felineum = assay: Determination of fungistatic doses, M.f.; assay type: cell-based; details: liquid Sabouraud medium, 25°C, 10 days
Experimental: as §8, §9, §10, §11, §12, §13, §14, §15, §16

Epidermo flocosum = assay: Determination of fungistatic doses, E.f.; assay type: cell-based; details: liquid Sabouraud medium, 25°C, 10 days; for MIC: 240 h, read-out: fungistatic dose, E.f.
Experimental: as §8, §9, §10, §11, §12, §13, §14, §15, §16

Syphacia obvelata = assay type: in vivo; parameters: Percentage of activity: concentration or dose not given beside the values; details: for Number of dead subjects (+): in vivo
Text: as §7

[6] = test system: Escherichia coli OIII B 4; assay: Determination of bacteriostatic doses, O.III B 4; assay type: cell-based; details: gelose medium, 37°C, 24 hours
Experimental: as §1, §2, §3, §4, §5
Escherichia coli OIII B 4
as §6

Hymenolepis nana = assay: Test for anthelminthics, cestodes (Hymenolepis nana); assay type: in vivo; parameters: Percentage of activity: concentration or dose not given beside the values; details: number of subjects 10
Text: as §7

in vivo [7] = details: mouse, ip, intraperitoneal administration to mice, read-out: acute toxicity (LD50)
in vivo [8] = details: mouse, po, orally administered to mice
Experimental: The LD50 of compounds PH 6099 and 5927, when orally administered to mice, is of more than 4000 mg/kg.

Trichomonas vaginalis = assay: Test for trichomonacidal activity; assay type: cell-based; details: Trichomonas vaginalis; read-out: Trichomonas vaginalis starting activity
Text: as §7

Trichophyton rubrum = assay: Determination of fungistatic doses, T.r.; assay type: cell-based; details: 240 h, liquid Sabouraud medium, 25°C, 10 days, read-out: fungistatic dose, T.r.
Experimental: as §8, §9, §10, §11, §12, §13, §14, §15, §16

Microsporum audouini = assay: Determination of fungistatic doses, M.a.; assay type: cell-based; details: 240 h, liquid Sabouraud medium, 25°C, 10 days, read-out: fungistatic dose, M.a.
Experimental: as §8, §9, §10, §11, §12, §13, §14, §15, §16

Proteus vulgaris 8181 = assay: Determination of bacteriostatic doses, 8181; assay type: cell-based; details: gelose medium, 37°C, 24 hours, strain 8181, read-out: bacteriostatic dose, (8181) printed in column P. morg.
Experimental: as §1, §2, §3, §4, §5, §6

[9] = Syphacia obvelata, number of subjects 10

| Compound | Percentage of activity (Syphacia obvelata; [9]) | Number of dead subjects (+) (Syphacia obvelata) | Number of dead subjects (+) (Hymenolepis nana) | Number of subjects from which the parasite has been eradicated (D) (Hymenolepis nana) | Percentage of activity (Hymenolepis nana) | MIC [1] | MIC [3] | MIC (Epidermo flocosum) | also measured |
| --- | --- | --- | --- | --- | --- | --- | --- | --- | --- |
| 2-(2'-trifluoromethyl-3'-methylphenoxyacetamido)-5-nitrothiazole [PH 6306] | 0% | 0 | 0 | 0 | 0% | – | – | – | bacteriostatic dose, E. 9790 (Enterococcus 9790): 100 µg/mL; Entomoeba dysenteriae starting activity (Entomoeba dysenteriae): 5 mμ/ml; fungistatic dose, T.m [1]: 1 µg/mL; bacteriostatic dose, Pseudo 8194 [2]: 0 µg/mL; bacteriostatic dose, S. 209 P [3]: 10 µg/mL; bacteriostatic dose, P. morg. [4]: 0 µg/mL; bacteriostatic dose, S. 3410 ([5]; gelose medium, 37°C, 24 hours): 0 µg/mL; fungistatic dose, M.f. (Microsporum felineum): 10 µg/mL; fungistatic dose, E.f. (Epidermo flocosum): 30 µg/mL; Number of subjects from which the parasite has been eradicated (D) (Syphacia obvelata; [9]): 0; bacteriostatic dose, O.III B 4 [6]: 0 µg/mL |
| O=C(COc1ccc(Cl)cc1)Nc1ncc([N+](=O)[O-])s1 [PH 5927] | 30% | 0 | 0 | 0 | 0% | 30 µg/mL (≈ 95.6 µM) | 100 µg/mL (≈ 319 µM) | 10 µg/mL (≈ 31.9 µM) | LD50 (in vivo [7]): > 4500 mg/kg; LD50 (in vivo [8]): > 4000 mg/kg |
| O=C(COc1ccc(Cl)cc1Cl)Nc1ncc([N+](=O)[O-])s1 [PH 6091] | 20% | 0 | 0 | 3 | 30% | 3 µg/mL (≈ 8.62 µM) | 3 µg/mL (≈ 8.62 µM) | 1 µg/mL (≈ 2.87 µM) | MIC (Microsporum felineum; Microsporum, 240 h, read-out: fungistatic dose, M.f.): 30 µg/mL (≈ 86.2 µM) |
| O=C(COc1ccc(Br)cc1)Nc1ncc([N+](=O)[O-])s1 [PH 6092] | 10% | 0 | 0 | 1 | 10% | 100 µg/mL (≈ 279 µM) | 10 µg/mL (≈ 27.9 µM) | – | minimal effective concentration (Trichomonas vaginalis): 100 µg/mL |
| Cc1cc(OCC(=O)Nc2ncc([N+](=O)[O-])s2)c(C(C)C)cc1Cl [PH 6099] | 20% | 0 | 0 | 4 | 40% | – | 3 µg/mL (≈ 8.11 µM) | – | MIC (Enterococcus 9790): 300 µg/mL (≈ 811 µM); MIC (Trichophyton rubrum): 2 µg/mL (≈ 5.41 µM); LD50 (in vivo [7]): ~200 mg/kg; MIC [5]: 300 µg/mL (≈ 811 µM); LD50 (in vivo [8]): > 4000 mg/kg; MIC (Microsporum audouini): 0.1 µg/mL (≈ 0.27 µM); minimal effective concentration (Trichomonas vaginalis): 100 µg/mL |
| O=C(COc1cc(Cl)ccc1Cl)Nc1ncc([N+](=O)[O-])s1 [PH 6159] | 0% | 0 | 0 | 2 | 20% | 30 µg/mL (≈ 86.2 µM) | – | – | – |
| O=C(COc1ccc(F)cc1)Nc1ncc([N+](=O)[O-])s1 [PH 6160] | 0% | 0 | 0 | 0 | 0% | 4 µg/mL (≈ 13.5 µM) | 10 µg/mL (≈ 33.6 µM) | 1 µg/mL (≈ 3.36 µM) | MIC (Trichophyton rubrum): 4 µg/mL (≈ 13.5 µM); MIC [5]: 100 µg/mL (≈ 336 µM); MIC (Microsporum audouini): 4 µg/mL (≈ 13.5 µM) |
| O=C(COc1cc(C(F)(F)F)cc(C(F)(F)F)c1)Nc1ncc([N+](=O)[O-])s1 [PH 6167] | 40% | 0 | 0 | 7 | 70% | 1 µg/mL (≈ 2.41 µM) | 3 µg/mL (≈ 7.22 µM) | 1 µg/mL (≈ 2.41 µM) | MIC (Enterococcus 9790): 10 µg/mL (≈ 24.1 µM) |
| O=C(COc1c(F)c(F)c(F)c(F)c1F)Nc1ncc([N+](=O)[O-])s1 [PH 6168] | 0% | 0 | 0 | 2 | 20% | 1 µg/mL (≈ 2.71 µM) | 10 µg/mL (≈ 27.1 µM) | 1 µg/mL (≈ 2.71 µM) | MIC (Enterococcus 9790): 10 µg/mL (≈ 27.1 µM); MIC [5]: 300 µg/mL (≈ 813 µM); MIC (Microsporum audouini): 3 µg/mL (≈ 8.13 µM); MIC ([6]; Escherichia coli, OIIIB4, read-out: bacteriostatic dose, O.III B 4): 300 µg/mL (≈ 813 µM); MIC (Proteus vulgaris 8181): 300 µg/mL (≈ 813 µM) |
| Cc1cc(Cl)c(OCC(=O)Nc2ncc([N+](=O)[O-])s2)cc1C [PH 6305] | 10% | 0 | 0 | 0 | 0% | – | – | – | – |
| Cc1cc(OCC(=O)Nc2ncc([N+](=O)[O-])s2)ccc1Cl [PH 6314] | 0% | 0 | 0 | 0 | 0% | – | 3 µg/mL (≈ 9.15 µM) | – | minimal effective concentration (Trichomonas vaginalis): 2.5 µg/mL |
